Measured values from PMC3961306, “Comparison of the Cancer Gene Targeting and Biochemical Selectivities of All Targeted Kinase Inhibitors Approved for Clinical Use” (PLoS ONE, 2014).

Tests used:
Experiment in all cases: Kinase profiling in a biochemical assay panel (mobility shift assays and ELISA), %-inhibition at 1 μM; selectivity entropy
[1] = target: panel of more than 300 wild-type and mutant kinases (313 kinase panel) (Homo sapiens, UniProt P09769)
[2] = target: panel of more than 300 wild-type and mutant kinases (313 kinase panel) (Homo sapiens, UniProt P16234)
[3] = target: panel of more than 300 wild-type and mutant kinases (313 kinase panel) (Homo sapiens, UniProt P80192)
[4] = target: panel of more than 300 wild-type and mutant kinases (313 kinase panel) (Homo sapiens, UniProt Q05655)
[5] = target: panel of more than 300 wild-type and mutant kinases (313 kinase panel) (Homo sapiens, UniProt Q14012)
[6] = target: T1, panel of more than 300 wild-type and mutant kinases (313 kinase panel) (Homo sapiens, UniProt Q9BXA7)
T1 sequence (Q9BXA7 1-367): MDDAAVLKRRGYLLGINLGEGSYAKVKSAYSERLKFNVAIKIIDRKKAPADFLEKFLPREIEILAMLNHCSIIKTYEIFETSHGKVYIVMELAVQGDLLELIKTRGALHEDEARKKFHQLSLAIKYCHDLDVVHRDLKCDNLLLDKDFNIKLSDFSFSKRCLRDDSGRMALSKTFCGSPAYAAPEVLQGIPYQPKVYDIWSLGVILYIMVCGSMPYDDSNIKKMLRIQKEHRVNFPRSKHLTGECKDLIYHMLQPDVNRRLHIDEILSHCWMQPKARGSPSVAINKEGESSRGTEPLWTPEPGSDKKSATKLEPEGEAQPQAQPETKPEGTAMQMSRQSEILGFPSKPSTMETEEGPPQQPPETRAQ

[7] = target: panel of more than 300 wild-type and mutant kinases (313 kinase panel) (Homo sapiens, UniProt P22607)
[8] = target: panel of more than 300 wild-type and mutant kinases (313 kinase panel) (Homo sapiens, UniProt P42684); conditions: kinase ARG; 1 μM compound
[9] = target: T2, panel of more than 300 wild-type and mutant kinases (313 kinase panel) (Homo sapiens, UniProt P52564)
T2 sequence (P52564 1-334): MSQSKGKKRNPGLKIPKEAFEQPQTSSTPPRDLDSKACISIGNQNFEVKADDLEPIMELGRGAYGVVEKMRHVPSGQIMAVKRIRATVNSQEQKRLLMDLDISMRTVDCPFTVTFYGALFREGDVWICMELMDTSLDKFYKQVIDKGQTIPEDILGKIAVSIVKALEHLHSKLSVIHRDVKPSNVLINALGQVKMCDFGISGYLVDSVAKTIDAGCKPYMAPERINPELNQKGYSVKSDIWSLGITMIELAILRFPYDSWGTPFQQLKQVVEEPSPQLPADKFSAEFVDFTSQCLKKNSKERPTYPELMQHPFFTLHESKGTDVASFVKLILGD

[10] = target: panel of more than 300 wild-type and mutant kinases (313 kinase panel) (Homo sapiens, UniProt P68400)
[11] = target: T3, panel of more than 300 wild-type and mutant kinases (313 kinase panel) (Homo sapiens, UniProt P30530)
T3 sequence (P30530 26-894): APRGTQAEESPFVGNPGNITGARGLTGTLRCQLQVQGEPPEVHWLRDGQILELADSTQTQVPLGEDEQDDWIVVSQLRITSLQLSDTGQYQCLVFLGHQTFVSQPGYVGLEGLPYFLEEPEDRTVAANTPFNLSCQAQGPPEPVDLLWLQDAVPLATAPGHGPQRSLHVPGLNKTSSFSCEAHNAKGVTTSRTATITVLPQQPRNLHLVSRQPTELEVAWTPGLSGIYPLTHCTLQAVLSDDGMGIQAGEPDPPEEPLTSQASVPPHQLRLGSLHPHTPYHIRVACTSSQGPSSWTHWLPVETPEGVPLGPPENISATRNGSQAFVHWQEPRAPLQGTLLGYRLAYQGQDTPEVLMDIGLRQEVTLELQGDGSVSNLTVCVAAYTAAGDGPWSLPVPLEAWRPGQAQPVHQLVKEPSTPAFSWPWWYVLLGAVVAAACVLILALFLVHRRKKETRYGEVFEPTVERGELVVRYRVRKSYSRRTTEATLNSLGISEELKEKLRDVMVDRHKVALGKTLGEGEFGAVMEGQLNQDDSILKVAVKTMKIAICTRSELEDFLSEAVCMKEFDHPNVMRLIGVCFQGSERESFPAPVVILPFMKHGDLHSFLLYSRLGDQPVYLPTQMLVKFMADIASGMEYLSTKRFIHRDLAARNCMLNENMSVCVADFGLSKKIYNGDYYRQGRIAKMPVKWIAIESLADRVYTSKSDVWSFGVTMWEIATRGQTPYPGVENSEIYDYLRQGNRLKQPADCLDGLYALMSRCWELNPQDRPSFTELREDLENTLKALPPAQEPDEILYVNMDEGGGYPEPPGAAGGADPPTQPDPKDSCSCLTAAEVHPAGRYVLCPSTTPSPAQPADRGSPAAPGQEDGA

[12] = target: panel of more than 300 wild-type and mutant kinases (313 kinase panel) (Homo sapiens, UniProt Q9UM73, L1196M)
[13] = kinase MAP2K6, compound at 1 μM

With `COc1cc(Nc2c(C#N)cnc3cc(OCCCN4CCN(C)CC4)c(OC)cc23)c(Cl)cc1Cl` [bosutinib] the “%-inhibition of FGR” value ([1]; kinase FGR, compound at 1 μM) was 92%, the “%-inhibition of PDGFRα” value ([2]; kinase PDGFRα, 1 μM) was 77% and the “%-inhibition of MLK1” value ([3]; kinase MLK1, 1 μM) was 93%. The “%-inhibition of PKCδ” value ([4]; kinase PKCδ, 1 μM) was 63%, the “%-inhibition, CaMK1α” value ([5]; 1 µM) was 9% and the “%-inhibition of TSSK1” value ([6]; kinase TSSK1, 1 μM) was 29%.
With `C[C@@H](Oc1cc(-c2cnn(C3CCNCC3)c2)cnc1N)c1c(Cl)ccc(F)c1Cl` [crizotinib] the “%-inhibition of FGR” value ([1]; kinase FGR, compound at 1 μM) was 70%, the “%-inhibition of PDGFRα” value ([2]; kinase PDGFRα, 1 μM) was 49% and the “%-inhibition of FGFR3” value ([7]; kinase FGFR3, compound at 1 μM) was 43%. For the same compound, the “%-inhibition, ARG” value [8] was 80%, the “%-inhibition of MAP2K6” value [9, 13] was 19% and the “%-inhibition, CK2α1/β” value ([10]; 1 µM) was -6.39%. The “%-inhibition of MLK1” value ([3]; kinase MLK1, 1 μM) was 2.82%, the “%-inhibition of PKCδ” value ([4]; kinase PKCδ, 1 μM) was -1.14% and the “%-inhibition, CaMK1α” value ([5]; kinase CaMK1α, 1 μM compound) was 0.734%. For the same compound, the “%-inhibition of TSSK1” value ([6]; kinase TSSK1, 1 μM) was 21%.
For `CC(C)(C)c1nc(-c2cccc(NS(=O)(=O)c3c(F)cccc3F)c2F)c(-c2ccnc(N)n2)s1` [dabrafenib], the “%-inhibition of FGR” value ([1]; kinase FGR, compound at 1 μM) was 82%, the “%-inhibition of PDGFRα” value ([2]; kinase PDGFRα, 1 μM) was 63% and the “%-inhibition of FGFR3” value ([7]; kinase FGFR3, compound at 1 μM) was 4.27%. The “%-inhibition, AXL” value ([11]; kinase AXL, 1 μM compound) was 30%, the “%-inhibition, ARG” value [8] was 54% and the “%-inhibition of MAP2K6” value [9, 13] was 1.34%. The “%-inhibition of PKCδ” value ([4]; kinase PKCδ, 1 μM) was -6% and the “%-inhibition of TSSK1” value ([6]; kinase TSSK1, 1 μM) was 8%.
`Cc1nc(Nc2ncc(C(=O)Nc3c(C)cccc3Cl)s2)cc(N2CCN(CCO)CC2)n1` [dasatinib] was tested, and the “%-inhibition of MAP2K6” value [9, 13] was 47%, the “%-inhibition, CK2α1/β” value ([10]; kinase CK2α1/β, 1 μM compound) was -1.7% and the “%-inhibition, CaMK1α” value ([5]; kinase CaMK1α, 1 μM compound) was 1.38%. For the same compound, the “%-inhibition of TSSK1” value ([6]; kinase TSSK1, 1 μM) was -4.66%.
With `C#Cc1cccc(Nc2ncnc3cc(OCCOC)c(OCCOC)cc23)c1` [erlotinib] the “%-inhibition of FGR” value ([1]; 1 µM) was 29%, the “%-inhibition of PDGFRα” value ([2]; 1 µM) was 52% and the “%-inhibition of FGFR3” value ([7]; 1 µM) was 63%. For the same compound, the “%-inhibition, AXL” value ([11]; 1 µM) was 18%, the “%-inhibition of MAP2K6” value ([9]; 1 µM) was 6% and the “%-inhibition, CK2α1/β” value ([10]; 1 µM) was 0%. For the same compound, the “%-inhibition of MLK1” value ([3]; 1 µM) was 14%, the “%-inhibition of PKCδ” value ([4]; 1 µM) was 5% and the “%-inhibition, CaMK1α” value ([5]; 1 µM) was 2.51%. The “%-inhibition of TSSK1” value ([6]; 1 µM) was 3.5% and the “%-inhibition, ALK(L1196M)” value ([12]; 1 µM) was 18%.
`Cc1ccc(Nc2nccc(N(C)c3ccc4c(C)n(C)nc4c3)n2)cc1S(N)(=O)=O` [pazopanib] was tested, and the “%-inhibition of FGR” value ([1]; kinase FGR, compound at 1 μM) was 86%, the “%-inhibition, AXL” value ([11]; kinase AXL, 1 μM compound) was 24% and the “%-inhibition, ARG” value [8] was 67%. For the same compound, the “%-inhibition of MAP2K6” value [9, 13] was 78%, the “%-inhibition, CK2α1/β” value ([10]; kinase CK2α1/β, 1 μM compound) was -3% and the “%-inhibition of MLK1” value ([3]; kinase MLK1, 1 μM) was 90%. For the same compound, the “%-inhibition of PKCδ” value ([4]; kinase PKCδ, 1 μM) was -3%, the “%-inhibition, CaMK1α” value ([5]; kinase CaMK1α, 1 μM compound) was 5.59% and the “%-inhibition of TSSK1” value ([6]; kinase TSSK1, 1 μM) was -1.56%. The “%-inhibition, ALK(L1196M)” value ([12]; kinase ALK(L1196M), 1 μM compound) was 25%.
With `Cc1ccc(C(=O)Nc2ccc(CN3CCN(C)CC3)c(C(F)(F)F)c2)cc1C#Cc1cnc2cccnn12` [ponatinib] the “%-inhibition of FGR” value ([1]; kinase FGR, compound at 1 μM) was 101%, the “%-inhibition of PDGFRα” value ([2]; kinase PDGFRα, 1 μM) was 103% and the “%-inhibition of FGFR3” value ([7]; kinase FGFR3, compound at 1 μM) was 101%. The “%-inhibition, AXL” value ([11]; kinase AXL, 1 μM compound) was 70%, the “%-inhibition, ARG” value [8] was 100% and the “%-inhibition of MLK1” value ([3]; kinase MLK1, 1 μM) was 29%. The “%-inhibition of PKCδ” value ([4]; kinase PKCδ, 1 μM) was 50% and the “%-inhibition of TSSK1” value ([6]; kinase TSSK1, 1 μM) was -4%.
For `N#CC[C@H](C1CCCC1)n1cc(-c2ncnc3[nH]ccc23)cn1` [ruxolitinib], the “%-inhibition of FGR” value ([1]; 1 µM) was 10%, the “%-inhibition of PDGFRα” value ([2]; kinase PDGFRα, 1 μM) was 35% and the “%-inhibition of FGFR3” value ([7]; kinase FGFR3, compound at 1 μM) was 15%. The “%-inhibition, AXL” value ([11]; kinase AXL, 1 μM compound) was 12%, the “%-inhibition, ARG” value [8] was 6% and the “%-inhibition of MAP2K6” value [9, 13] was 44%. The “%-inhibition, CK2α1/β” value ([10]; kinase CK2α1/β, 1 μM compound) was -6%, the “%-inhibition of MLK1” value ([3]; kinase MLK1, 1 μM) was 53% and the “%-inhibition of PKCδ” value ([4]; kinase PKCδ, 1 μM) was 2%. For the same compound, the “%-inhibition of TSSK1” value ([6]; kinase TSSK1, 1 μM) was 39% and the “%-inhibition, ALK(L1196M)” value ([12]; 1 µM) was 79%.
For `CCN(CC)CCNC(=O)c1c(C)[nH]c(/C=C2\C(=O)Nc3ccc(F)cc32)c1C` [sunitinib], the “%-inhibition of FGFR3” value ([7]; kinase FGFR3, compound at 1 μM) was 97%, the “%-inhibition, AXL” value ([11]; kinase AXL, 1 μM compound) was 98% and the “%-inhibition, CK2α1/β” value ([10]; kinase CK2α1/β, 1 μM compound) was -21%. For the same compound, the “%-inhibition of TSSK1” value ([6]; kinase TSSK1, 1 μM) was 85%.
`COc1cc2c(Nc3ccc(Br)cc3F)ncnc2cc1OCC1CCN(C)CC1` [vandetanib] was tested, and the “%-inhibition of FGR” value ([1]; kinase FGR, compound at 1 μM) was 86%, the “%-inhibition of PDGFRα” value ([2]; kinase PDGFRα, 1 μM) was 101% and the “%-inhibition, ARG” value [8] was 94%. The “%-inhibition of MAP2K6” value [9, 13] was 18%, the “%-inhibition, CK2α1/β” value ([10]; kinase CK2α1/β, 1 μM compound) was -7% and the “%-inhibition of MLK1” value ([3]; kinase MLK1, 1 μM) was 42%. For the same compound, the “%-inhibition of PKCδ” value ([4]; kinase PKCδ, 1 μM) was -5.39%, the “%-inhibition, CaMK1α” value ([5]; kinase CaMK1α, 1 μM compound) was -3% and the “%-inhibition of TSSK1” value ([6]; kinase TSSK1, 1 μM) was 2.66%.
